Results reported in the supplement of paper PMC11208160.

Assay: recombinant UMI read abundance after kanamycin selection (control-corrected) (log10(CPM+1)); higher = more efficient recombination; extreme values may be limits of the assay; sequences stand for … in AGTGCAGAGAAAATCGGCCAGTTTTCTCTGCCTGCAGTCCGCATGCCGTGGGACCCCTTGGGTTCTAACCTGTTGCCTAGATTTATGCAGCGGACTGCCTTTCTCCCAAAGTGATAAACCGG…AGGTTGGTTTCACT; site = the 11-nt donor
Procedure, shortened: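 In a pooled Escherichia coli screen for the IS621 bridge recombinase, donor and donor-binding-loop pairs were each placed with a 12-nt UMI on a plasmid bearing a promoterless kanamycin gene. This library was co-electroporated with a target plasmid encoding a fixed target and T7-inducible recombinase, and cells were plated either on IPTG (0.07 mM) plus kanamycin or without selection, in two replicates each. Recombinant UMIs were PCR-amplified across the donor–target junction and sequenced, and counts were converted to CPM, averaged over replicates, scaled by control-derived factors and reported as log10(CPM+1).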
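Further: IS621 bridge recombinase in Escherichia coli cells against a fixed T5 target plasmid.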

Sequence	recombinant UMI read abundance (log10)
GATCATCCATGGACCGGTTTTCCCGGTAATCCGTATTTGCT (site GATTATCCTAG)	0
GATCCAACATGGACCGGTTTTCCCGGTAATCCGTATTTGTA (site GATCCAACTTA)	0.0155
GATCCAACATGGACCGGTTTTCCCGGTAATCCGTATTTGTA (site GCTCCAACTTA)	0.00727
GATCCAACATGGACCGGTTTTCCCGGTAATCCGTATTTGTA (site GGTCCAACTTA)	0.021
GATCCAACATGGACCGGTTTTCCCGGTAATCCGTATTTGTA (site GTTCCAACTTA)	0.0286
GATCCGTCATGGACCGGTTTTCCCGGTAATCCGTATTTGTA (site GATCCGTCTTA)	1.26
GATCGCTCATGGACCGGTTTTCCCGGTAATCCGTATTTGTT (site GATCGCTCTAA)	0.523
GATCTGCCATGGACCGGTTTTCCCGGTAATCCGTATTTGAA (site GATCTGCCTTT)	0.00302
GATGAAACATGGACCGGTTTTCCCGGTAATCCGTATTTGCC (site GATGAAACTGG)	1.72
GATGGGACATGGACCGGTTTTCCCGGTAATCCGTATTTGAC (site GATAGGACTGT)	1.69
GATGGGACATGGACCGGTTTTCCCGGTAATCCGTATTTGAC (site GATCGGACTGT)	0.285
GATGGGACATGGACCGGTTTTCCCGGTAATCCGTATTTGAC (site GATGGGACTGT)	2.75
GATGGGACATGGACCGGTTTTCCCGGTAATCCGTATTTGAC (site GATTGGACTGT)	0
GATGTAACATGGACCGGTTTTCCCGGTAATCCGTATTTGCT (site AATGTAACTAG)	1.24
GATGTAACATGGACCGGTTTTCCCGGTAATCCGTATTTGCT (site CATGTAACTAG)	1.31
GATGTAACATGGACCGGTTTTCCCGGTAATCCGTATTTGCT (site GATGTAACTAG)	1.83
GATGTAACATGGACCGGTTTTCCCGGTAATCCGTATTTGCT (site TATGTAACTAG)	1.83
GATGTATCATGGACCGGTTTTCCCGGTAATCCGTATTTGCA (site GATGTATCTTG)	2.3
GATGTTCCATGGACCGGTTTTCCCGGTAATCCGTATTTGGT (site GATGTTCCTAC)	0.0188
GATGTTCCATGGACCGGTTTTCCCGGTAATCCGTATTTGGT (site GCTGTTCCTAC)	0.00282
GATGTTCCATGGACCGGTTTTCCCGGTAATCCGTATTTGGT (site GGTGTTCCTAC)	0
GATGTTCCATGGACCGGTTTTCCCGGTAATCCGTATTTGGT (site GTTGTTCCTAC)	0.00388
GATTAGACATGGACCGGTTTTCCCGGTAATCCGTATTTGCT (site TTGCTCCCTGT)	0
GATTATCCATGGACCGGTTTTCCCGGTAATCCGTATTTGAT (site GATTATCCTAA)	0.0183
GATTATCCATGGACCGGTTTTCCCGGTAATCCGTATTTGAT (site GATTATCCTAC)	0.0054

Sequence	recombinant UMI read abundance (log10)
GATTATCCATGGACCGGTTTTCCCGGTAATCCGTATTTGAT (site GATTATCCTAG)	0
GATTATCCATGGACCGGTTTTCCCGGTAATCCGTATTTGAT (site GATTATCCTAT)	0
GATTATCCATGGACCGGTTTTCCCGGTAATCCGTATTTGGT (site GATTATCCTAA)	0.017
GATTATCCATGGACCGGTTTTCCCGGTAATCCGTATTTGGT (site GATTATCCTAC)	0.0163
GATTATCCATGGACCGGTTTTCCCGGTAATCCGTATTTGGT (site GATTATCCTAG)	0
GATTATCCATGGACCGGTTTTCCCGGTAATCCGTATTTGGT (site GATTATCCTAT)	0
GATTATCCATGGACCGGTTTTCCCGGTAATCCGTATTTGTT (site GATTATCCTAA)	0.00783
GATTATCCATGGACCGGTTTTCCCGGTAATCCGTATTTGTT (site GATTATCCTAC)	0
GATTATCCATGGACCGGTTTTCCCGGTAATCCGTATTTGTT (site GATTATCCTAG)	0
GATTATCCATGGACCGGTTTTCCCGGTAATCCGTATTTGTT (site GATTATCCTAT)	0
GATTGAACATGGACCGGTTTTCCCGGTAATCCGTATTTGAC (site GATTGAACTGT)	0
GATTGAACATGGACCGGTTTTCCCGGTAATCCGTATTTGAC (site GATTGCACTGT)	0.00522
GATTGAACATGGACCGGTTTTCCCGGTAATCCGTATTTGAC (site GATTGGACTGT)	0.339
GATTGAACATGGACCGGTTTTCCCGGTAATCCGTATTTGAC (site GATTGTACTGT)	0
GATTGTACATGGACCGGTTTTCCCGGTAATCCGTATTTGCG (site GATTGTACTCG)	0.619
GATTGTACATGGACCGGTTTTCCCGGTAATCCGTATTTGGG (site GATTGTACTCC)	0.0205
GATTGTCCATGGACCGGTTTTCCCGGTAATCCGTATTTGAT (site GATTGTCCTAT)	1.17
GATTTTCCATGGACCGGTTTTCCCGGTAATCCGTATTTGCT (site GATTATCCTAG)	0
GATTTTCCATGGACCGGTTTTCCCGGTAATCCGTATTTGCT (site GATTCTCCTAG)	0
GATTTTCCATGGACCGGTTTTCCCGGTAATCCGTATTTGCT (site GATTGTCCTAG)	0.014
GATTTTCCATGGACCGGTTTTCCCGGTAATCCGTATTTGCT (site GATTTTCCTAG)	0
GCAAAGCCATGGACCGGTTTTCCCGGTAATCCGTATTTGGG (site GCAAAGCCTCC)	0.00379
GCAAAGCCATGGACCGGTTTTCCCGGTAATCCGTATTTGGG (site GCCAAGCCTCC)	0.00875
GCAAAGCCATGGACCGGTTTTCCCGGTAATCCGTATTTGGG (site GCGAAGCCTCC)	0.00619
GCAAAGCCATGGACCGGTTTTCCCGGTAATCCGTATTTGGG (site GCTAAGCCTCC)	0.0133

Sequence	recombinant UMI read abundance (log10)
GCAACATCATGGACCGGTTTTCCCGGTAATCCGTATTTGCC (site GCAACATCTGG)	0.611
GCAAGAACATGGACCGGTTTTCCCGGTAATCCGTATTTGAG (site GCAAGAACTCT)	2.56
GCAATAACATGGACCGGTTTTCCCGGTAATCCGTATTTGGT (site GCAATAACTAC)	2.38
GCAATCGCATGGACCGGTTTTCCCGGTAATCCGTATTTGAG (site GCAATCGCTCT)	2.29
GCACAGCCATGGACCGGTTTTCCCGGTAATCCGTATTTGTT (site GCACAGCCTAA)	1.47
GCACCAACATGGACCGGTTTTCCCGGTAATCCGTATTTGCC (site GCACCAACTGG)	0.762
GCACCGACATGGACCGGTTTTCCCGGTAATCCGTATTTGAA (site GCACCGACTTT)	0.965
GCACGAACATGGACCGGTTTTCCCGGTAATCCGTATTTGTC (site ACACGAACTGA)	1.48
GCACGAACATGGACCGGTTTTCCCGGTAATCCGTATTTGTC (site CCACGAACTGA)	2.19
GCACGAACATGGACCGGTTTTCCCGGTAATCCGTATTTGTC (site GCACGAACTGA)	2.56
GCACGAACATGGACCGGTTTTCCCGGTAATCCGTATTTGTC (site TCACGAACTGA)	0.552
GCACGTGCATGGACCGGTTTTCCCGGTAATCCGTATTTGGC (site GCACGTGCTGC)	2.23
GCACTCTCATGGACCGGTTTTCCCGGTAATCCGTATTTGGG (site GCACTCTCTCC)	0.647
GCAGAGTCATGGACCGGTTTTCCCGGTAATCCGTATTTGTA (site GCAGAGTCTTA)	3.17
GCAGATCCATGGACCGGTTTTCCCGGTAATCCGTATTTGTC (site GCAGATCCTGA)	0
GCAGCGTCATGGACCGGTTTTCCCGGTAATCCGTATTTGGA (site GCAGCGTCTTC)	2.37
GCAGGCCCATGGACCGGTTTTCCCGGTAATCCGTATTTGCC (site GCAGGCCCTGG)	0.86
GCAGTGACATGGACCGGTTTTCCCGGTAATCCGTATTTGCG (site GCAGTGACTCG)	2.18
GCAGTTTCATGGACCGGTTTTCCCGGTAATCCGTATTTGCA (site GCAGTTTCTTG)	2.59
GCATACTCATGGACCGGTTTTCCCGGTAATCCGTATTTGCA (site ACATACTCTTG)	2.41
GCATACTCATGGACCGGTTTTCCCGGTAATCCGTATTTGCA (site CCATACTCTTG)	2.9
GCATACTCATGGACCGGTTTTCCCGGTAATCCGTATTTGCA (site GCATACTCTTG)	2.96
GCATACTCATGGACCGGTTTTCCCGGTAATCCGTATTTGCA (site TCATACTCTTG)	2.61
GCATAGTCATGGACCGGTTTTCCCGGTAATCCGTATTTGTT (site GCATAGTCTAA)	3.29
GCATCGGCATGGACCGGTTTTCCCGGTAATCCGTATTTGAC (site GCATCGGCTGT)	2.09
